Measured values reported in PMC9954146, “Anti-Leukaemic Activity of Rilpivirine Is Mediated by Aurora A Kinase Inhibition” (Cancers, 2023).

Tests used:
Assay in all cases: Kinase panel
Format in all cases: biochemical
Conditions in all cases: read-out: % Residual Activity
Aurora-C(h) = target: T1, Aurora-C(h) (Homo sapiens, UniProt Q9UQB9)
T1 construct: purchased Eurofins (KinaseProfiler)
Summary of the method: (§1)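 Radiometric kinase assay, ATP at Km for each enzyme; IC50 → Ki via Cheng–Prusoff. Part of a kinome-wide selectivity screen of rilpivirine.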

CDK1/cyclinB(h) = target: T2, CDK1/cyclinB(h) (Homo sapiens, UniProt P06493)
T2 construct: purchased Eurofins (KinaseProfiler)
Summary of the method: as §1

CDKL4(h) = target: T3, CDKL4(h) (Homo sapiens, UniProt Q5MAI5)
T3 construct: purchased Eurofins (KinaseProfiler)
Summary of the method: as §1

CaMKIIδ(h) = target: T4, CaMKIIδ(h) (Homo sapiens, UniProt Q13557)
T4 construct: purchased Eurofins (KinaseProfiler)
Summary of the method: as §1

DCAMKL2(h) = target: T5, DCAMKL2(h) (Homo sapiens, UniProt Q8N568)
T5 construct: purchased Eurofins (KinaseProfiler)
Summary of the method: as §1

DRAK1(h) = target: T6, DRAK1(h) (Homo sapiens, UniProt Q9UEE5)
T6 construct: purchased Eurofins (KinaseProfiler)
Summary of the method: as §1

DYRK1A(h) = target: T7, DYRK1A(h) (Homo sapiens, UniProt Q13627)
T7 construct: purchased Eurofins (KinaseProfiler)
Summary of the method: as §1

Haspin(h) = target: T8, Haspin(h) (Homo sapiens, UniProt Q8TF76)
T8 construct: purchased Eurofins (KinaseProfiler)
T8 sequence (Q8TF76 whole entry): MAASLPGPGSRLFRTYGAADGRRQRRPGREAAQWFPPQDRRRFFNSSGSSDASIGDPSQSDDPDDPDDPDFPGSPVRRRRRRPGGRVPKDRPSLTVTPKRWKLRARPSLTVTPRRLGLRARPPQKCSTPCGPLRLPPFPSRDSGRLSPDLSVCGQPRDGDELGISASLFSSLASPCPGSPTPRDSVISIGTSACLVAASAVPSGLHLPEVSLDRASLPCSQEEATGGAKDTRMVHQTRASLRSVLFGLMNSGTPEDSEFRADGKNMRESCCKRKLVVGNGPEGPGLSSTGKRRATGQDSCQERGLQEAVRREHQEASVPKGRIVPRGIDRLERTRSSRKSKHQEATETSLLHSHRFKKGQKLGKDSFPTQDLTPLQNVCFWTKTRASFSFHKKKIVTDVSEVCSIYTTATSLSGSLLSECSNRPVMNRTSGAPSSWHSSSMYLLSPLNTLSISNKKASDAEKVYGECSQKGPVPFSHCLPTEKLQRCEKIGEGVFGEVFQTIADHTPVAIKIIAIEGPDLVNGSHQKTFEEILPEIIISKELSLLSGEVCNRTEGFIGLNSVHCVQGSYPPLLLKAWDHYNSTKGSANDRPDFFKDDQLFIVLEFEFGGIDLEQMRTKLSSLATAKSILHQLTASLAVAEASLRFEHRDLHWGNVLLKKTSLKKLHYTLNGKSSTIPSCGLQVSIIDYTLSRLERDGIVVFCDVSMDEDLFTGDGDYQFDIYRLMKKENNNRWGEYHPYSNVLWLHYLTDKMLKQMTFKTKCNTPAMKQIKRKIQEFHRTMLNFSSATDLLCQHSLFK
Summary of the method: as §1

Hck(h) = target: T9, Hck(h) (Homo sapiens, UniProt P08631)
T9 construct: purchased Eurofins (KinaseProfiler)
Summary of the method: as §1

JAK1(h) = target: T10, JAK1(h) (Homo sapiens, UniProt P23458)
T10 construct: purchased Eurofins (KinaseProfiler)
Summary of the method: as §1

KDR(h) = target: T11, KDR(h) (Homo sapiens, UniProt P35968)
T11 construct: purchased Eurofins (KinaseProfiler)
Summary of the method: as §1

LKB1(h) = target: T12, LKB1(h) (Homo sapiens, UniProt Q15831)
T12 construct: purchased Eurofins (KinaseProfiler)
Summary of the method: as §1

LTK(h) = target: T13, LTK(h) (Homo sapiens, UniProt P29376)
T13 construct: purchased Eurofins (KinaseProfiler)
Summary of the method: as §1

MARK4(h) = target: T14, MARK4(h) (Homo sapiens, UniProt Q96L34)
T14 construct: purchased Eurofins (KinaseProfiler)
Summary of the method: as §1

MKK3(h) = target: T15, MKK3(h) (Homo sapiens, UniProt P46734)
T15 construct: purchased Eurofins (KinaseProfiler)
Summary of the method: as §1

MLK2(h) = target: T16, MLK2(h) (Homo sapiens, UniProt Q02779)
T16 construct: purchased Eurofins (KinaseProfiler)
Summary of the method: as §1

MRCKγ(h) = target: T17, MRCKγ(h) (Homo sapiens, UniProt Q6DT37)
T17 construct: purchased Eurofins (KinaseProfiler)
Summary of the method: as §1

MST3(h) = target: T18, MST3(h) (Homo sapiens, UniProt Q9Y6E0)
T18 construct: purchased Eurofins (KinaseProfiler)
T18 sequence (Q9Y6E0 whole entry): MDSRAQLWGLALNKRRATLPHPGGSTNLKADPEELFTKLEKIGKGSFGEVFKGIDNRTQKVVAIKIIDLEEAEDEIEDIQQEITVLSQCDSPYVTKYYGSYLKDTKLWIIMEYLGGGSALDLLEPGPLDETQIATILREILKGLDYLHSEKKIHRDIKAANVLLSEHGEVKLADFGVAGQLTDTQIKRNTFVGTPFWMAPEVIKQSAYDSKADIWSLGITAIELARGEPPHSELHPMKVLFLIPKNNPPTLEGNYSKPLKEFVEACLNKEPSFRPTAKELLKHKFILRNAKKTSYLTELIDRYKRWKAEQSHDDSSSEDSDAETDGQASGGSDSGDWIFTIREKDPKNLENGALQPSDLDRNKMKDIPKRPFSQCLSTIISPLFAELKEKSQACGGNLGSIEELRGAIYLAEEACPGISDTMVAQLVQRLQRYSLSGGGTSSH
Summary of the method: as §1

Met(h) = target: T19, Met(h) (Homo sapiens, UniProt P08581)
T19 construct: purchased Eurofins (KinaseProfiler)
Summary of the method: as §1

NEK11(h) = target: T20, NEK11(h) (Homo sapiens, UniProt Q8NG66)
T20 construct: purchased Eurofins (KinaseProfiler)
Summary of the method: as §1

PAK2(h) = target: T21, PAK2(h) (Homo sapiens, UniProt Q13177)
T21 construct: purchased Eurofins (KinaseProfiler)
Summary of the method: as §1

PAR-1Bα(h) = target: T22, PAR-1Bα(h) (Homo sapiens, UniProt Q7KZI7)
T22 construct: purchased Eurofins (KinaseProfiler)
Summary of the method: as §1

[1] = target: PI3 Kinase (p110aH1047R)/p85a)(h) (Homo sapiens, UniProt P42336, H1047R)
Chain of PI3 Kinase (p110aH1047R)/p85a)(h) (P42336 whole entry H1047R): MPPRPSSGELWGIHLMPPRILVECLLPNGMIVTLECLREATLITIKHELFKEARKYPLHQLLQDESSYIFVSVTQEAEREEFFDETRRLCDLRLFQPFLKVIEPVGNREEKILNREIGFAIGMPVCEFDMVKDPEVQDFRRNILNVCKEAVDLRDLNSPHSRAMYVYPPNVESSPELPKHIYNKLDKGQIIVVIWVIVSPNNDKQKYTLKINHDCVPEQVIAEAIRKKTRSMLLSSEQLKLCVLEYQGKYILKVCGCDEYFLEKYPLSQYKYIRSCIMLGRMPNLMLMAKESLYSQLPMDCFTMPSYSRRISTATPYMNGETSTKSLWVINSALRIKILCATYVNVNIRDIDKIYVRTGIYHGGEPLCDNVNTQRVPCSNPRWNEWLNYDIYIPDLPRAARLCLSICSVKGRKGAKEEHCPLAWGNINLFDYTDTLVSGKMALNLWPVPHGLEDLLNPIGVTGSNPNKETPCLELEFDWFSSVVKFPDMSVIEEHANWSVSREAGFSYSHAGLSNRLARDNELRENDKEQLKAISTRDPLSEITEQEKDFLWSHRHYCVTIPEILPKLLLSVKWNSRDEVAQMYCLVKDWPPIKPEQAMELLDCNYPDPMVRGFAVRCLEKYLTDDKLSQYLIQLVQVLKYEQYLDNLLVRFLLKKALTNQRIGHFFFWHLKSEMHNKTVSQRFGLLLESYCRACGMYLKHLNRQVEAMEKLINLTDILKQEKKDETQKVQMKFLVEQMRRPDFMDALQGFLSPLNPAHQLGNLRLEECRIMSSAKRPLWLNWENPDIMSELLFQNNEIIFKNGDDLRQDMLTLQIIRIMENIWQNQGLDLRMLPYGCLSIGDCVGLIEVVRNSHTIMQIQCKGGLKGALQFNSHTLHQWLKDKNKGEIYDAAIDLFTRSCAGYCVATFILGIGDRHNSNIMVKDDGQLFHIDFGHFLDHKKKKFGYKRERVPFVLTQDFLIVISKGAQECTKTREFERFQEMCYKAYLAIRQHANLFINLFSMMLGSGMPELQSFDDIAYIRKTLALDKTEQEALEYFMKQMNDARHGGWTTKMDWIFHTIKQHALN
Chain of PI3 Kinase (p110aH1047R)/p85a)(h) (P27986 whole entry partner): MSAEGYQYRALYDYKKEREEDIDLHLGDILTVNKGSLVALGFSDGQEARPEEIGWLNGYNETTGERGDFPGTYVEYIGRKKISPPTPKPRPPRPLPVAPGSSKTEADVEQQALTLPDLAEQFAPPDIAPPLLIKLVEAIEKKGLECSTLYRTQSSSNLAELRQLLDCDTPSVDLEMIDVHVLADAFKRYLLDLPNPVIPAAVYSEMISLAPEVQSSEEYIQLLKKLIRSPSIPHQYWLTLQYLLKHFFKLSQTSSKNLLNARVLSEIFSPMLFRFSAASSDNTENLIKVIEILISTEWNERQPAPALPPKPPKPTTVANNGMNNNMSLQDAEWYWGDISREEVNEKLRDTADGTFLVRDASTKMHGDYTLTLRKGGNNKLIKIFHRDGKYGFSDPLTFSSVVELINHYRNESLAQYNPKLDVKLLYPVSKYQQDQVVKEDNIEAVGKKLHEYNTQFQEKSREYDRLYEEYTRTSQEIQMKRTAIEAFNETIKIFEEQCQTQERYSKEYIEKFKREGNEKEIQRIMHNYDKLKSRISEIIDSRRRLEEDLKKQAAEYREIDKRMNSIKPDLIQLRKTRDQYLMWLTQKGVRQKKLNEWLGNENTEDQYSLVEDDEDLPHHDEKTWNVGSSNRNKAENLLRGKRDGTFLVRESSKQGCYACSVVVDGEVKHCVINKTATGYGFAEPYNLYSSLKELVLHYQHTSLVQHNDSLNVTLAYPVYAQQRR
Summary of the method: as §1

PIP4K2a(h) = PIP4K2a(h) (Homo sapiens, UniProt P48426)
Chain of PIP4K2a(h) (P48426 whole entry): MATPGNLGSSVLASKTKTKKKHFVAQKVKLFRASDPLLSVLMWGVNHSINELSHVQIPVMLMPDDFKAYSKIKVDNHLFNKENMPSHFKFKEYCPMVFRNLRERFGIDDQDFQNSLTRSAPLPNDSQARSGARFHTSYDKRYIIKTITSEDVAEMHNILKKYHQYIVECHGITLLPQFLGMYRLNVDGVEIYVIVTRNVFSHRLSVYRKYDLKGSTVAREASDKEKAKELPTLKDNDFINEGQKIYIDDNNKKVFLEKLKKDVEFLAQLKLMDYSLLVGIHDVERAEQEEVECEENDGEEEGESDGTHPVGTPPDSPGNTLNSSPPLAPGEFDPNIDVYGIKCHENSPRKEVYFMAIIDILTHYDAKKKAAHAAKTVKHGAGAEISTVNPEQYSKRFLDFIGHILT
Summary of the method: as §1

PKA(h) = target: T23, PKA(h) (Homo sapiens, UniProt P17612)
T23 construct: purchased Eurofins (KinaseProfiler)
Summary of the method: as §1

PKCβI(h) = target: T24, PKCβI(h) (Homo sapiens, UniProt P05771)
T24 construct: purchased Eurofins (KinaseProfiler)
Summary of the method: as §1

PKD2(h) = target: T25, PKD2(h) (Homo sapiens, UniProt Q9BZL6)
T25 construct: purchased Eurofins (KinaseProfiler)
T25 sequence (Q9BZL6 whole entry): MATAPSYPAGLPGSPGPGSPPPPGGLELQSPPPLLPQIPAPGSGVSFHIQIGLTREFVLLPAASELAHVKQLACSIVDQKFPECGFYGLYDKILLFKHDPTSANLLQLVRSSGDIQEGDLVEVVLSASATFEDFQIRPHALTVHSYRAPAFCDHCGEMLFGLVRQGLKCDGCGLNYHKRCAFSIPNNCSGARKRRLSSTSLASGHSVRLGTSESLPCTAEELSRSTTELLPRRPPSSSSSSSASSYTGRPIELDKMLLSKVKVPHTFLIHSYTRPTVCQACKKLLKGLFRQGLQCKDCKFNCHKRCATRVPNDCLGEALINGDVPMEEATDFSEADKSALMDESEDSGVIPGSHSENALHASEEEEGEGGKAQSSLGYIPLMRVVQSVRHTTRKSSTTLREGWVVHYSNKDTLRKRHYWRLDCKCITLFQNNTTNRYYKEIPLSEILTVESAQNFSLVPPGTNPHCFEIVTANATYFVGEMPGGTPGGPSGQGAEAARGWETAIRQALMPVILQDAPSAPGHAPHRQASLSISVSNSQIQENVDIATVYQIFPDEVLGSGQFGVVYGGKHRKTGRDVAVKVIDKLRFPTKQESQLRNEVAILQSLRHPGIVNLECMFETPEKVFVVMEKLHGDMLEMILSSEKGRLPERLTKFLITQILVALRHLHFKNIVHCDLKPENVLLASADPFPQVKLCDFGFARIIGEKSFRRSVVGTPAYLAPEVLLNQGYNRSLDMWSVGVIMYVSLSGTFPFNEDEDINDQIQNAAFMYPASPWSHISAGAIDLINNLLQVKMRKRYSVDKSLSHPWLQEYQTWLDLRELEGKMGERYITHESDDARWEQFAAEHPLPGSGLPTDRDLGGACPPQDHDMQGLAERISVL
Summary of the method: as §1

PKG1β(h) = target: T26, PKG1β(h) (Homo sapiens, UniProt Q13976)
T26 construct: purchased Eurofins (KinaseProfiler)
Summary of the method: as §1

PRKG2(h) = target: T27, PRKG2(h) (Homo sapiens, UniProt Q13237)
T27 construct: purchased Eurofins (KinaseProfiler)
Summary of the method: as §1

Pim-2(h) = target: T28, Pim-2(h) (Homo sapiens, UniProt Q9P1W9)
T28 construct: purchased Eurofins (KinaseProfiler)
Summary of the method: as §1

ROCK-I(h) = target: T29, ROCK-I(h) (Homo sapiens, UniProt Q13464)
T29 construct: purchased Eurofins (KinaseProfiler)
Summary of the method: as §1

Rsk1(h) = target: T30, Rsk1(h) (Homo sapiens, UniProt Q15418)
T30 construct: purchased Eurofins (KinaseProfiler)
Summary of the method: as §1

Rsk2(h) = target: T31, Rsk2(h) (Homo sapiens, UniProt P51812)
T31 construct: purchased Eurofins (KinaseProfiler)
T31 sequence (P51812 whole entry): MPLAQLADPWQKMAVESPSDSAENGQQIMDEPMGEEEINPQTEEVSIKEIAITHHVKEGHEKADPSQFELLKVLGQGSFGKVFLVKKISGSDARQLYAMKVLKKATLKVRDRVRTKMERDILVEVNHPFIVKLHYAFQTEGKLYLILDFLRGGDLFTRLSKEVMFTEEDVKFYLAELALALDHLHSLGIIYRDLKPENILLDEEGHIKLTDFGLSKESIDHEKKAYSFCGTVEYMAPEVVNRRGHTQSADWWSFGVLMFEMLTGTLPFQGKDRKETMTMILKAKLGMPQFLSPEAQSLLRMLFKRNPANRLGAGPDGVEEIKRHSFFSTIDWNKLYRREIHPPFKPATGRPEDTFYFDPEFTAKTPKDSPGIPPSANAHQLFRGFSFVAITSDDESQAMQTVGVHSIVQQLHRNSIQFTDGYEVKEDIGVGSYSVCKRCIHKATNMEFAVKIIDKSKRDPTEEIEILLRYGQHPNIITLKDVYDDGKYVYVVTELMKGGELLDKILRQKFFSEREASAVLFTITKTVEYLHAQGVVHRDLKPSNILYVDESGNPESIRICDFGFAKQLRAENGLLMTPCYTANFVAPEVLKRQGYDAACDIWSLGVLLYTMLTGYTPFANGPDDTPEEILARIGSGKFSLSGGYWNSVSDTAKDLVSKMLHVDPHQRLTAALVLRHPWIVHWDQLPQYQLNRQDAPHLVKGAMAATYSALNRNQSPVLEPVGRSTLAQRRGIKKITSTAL
Summary of the method: as §1

SGK2(h) = target: T32, SGK2(h) (Homo sapiens, UniProt Q9HBY8)
T32 construct: purchased Eurofins (KinaseProfiler)
Summary of the method: as §1

SRPK2(h) = target: T33, SRPK2(h) (Homo sapiens, UniProt P78362)
T33 construct: purchased Eurofins (KinaseProfiler)
Summary of the method: as §1

STK16(h) = target: T34, STK16(h) (Homo sapiens, UniProt O75716)
T34 construct: purchased Eurofins (KinaseProfiler)
Summary of the method: as §1

Tec(h) activated = target: T35, Tec(h) activated (Homo sapiens, UniProt P42680)
T35 construct: purchased Eurofins (KinaseProfiler)
Summary of the method: as §1

ULK1(h) = target: T36, ULK1(h) (Homo sapiens, UniProt O75385)
T36 construct: purchased Eurofins (KinaseProfiler)
Summary of the method: as §1

WNK4(h) = target: T37, WNK4(h) (Homo sapiens, UniProt Q96J92)
T37 construct: purchased Eurofins (KinaseProfiler)
Summary of the method: as §1

Cc1cc(/C=C/C#N)cc(C)c1Nc1ccnc(Nc2ccc(C#N)cc2)n1 [rilpivirine, (E)-4-((4-((4-(2-cyanoethenyl)-2,6-dimethylphenyl)amino)pyrimidin-2-yl)amino)benzonitrile]
remaining activity at 1 µM (Aurora-C(h)): 93% | remaining activity at 1 µM (CDK1/cyclinB(h)): 105% | remaining activity at 1 µM (CDKL4(h)): 74% | remaining activity at 1 µM (CaMKIIδ(h)): 47% | remaining activity at 1 µM (DCAMKL2(h)): 122% | remaining activity at 1 µM (DRAK1(h)): 76% | remaining activity at 1 µM (DYRK1A(h)): 56% | remaining activity at 1 µM (Haspin(h)): 61% | remaining activity at 1 µM (Hck(h)): 50% | remaining activity at 1 µM (JAK1(h)): 79% | remaining activity at 1 µM (KDR(h)): 85% | remaining activity at 1 µM (LKB1(h)): 87% | remaining activity at 1 µM (LTK(h)): 78% | remaining activity at 1 µM (MARK4(h)): 88% | remaining activity at 1 µM (MKK3(h)): 111% | remaining activity at 1 µM (MLK2(h)): 85% | remaining activity at 1 µM (MRCKγ(h)): 90% | remaining activity at 1 µM (MST3(h)): 93% | remaining activity at 1 µM (Met(h)): 80% | remaining activity at 1 µM (NEK11(h)): 92% | remaining activity at 1 µM (PAK2(h)): 89% | remaining activity at 1 µM (PAR-1Bα(h)): 104% | remaining activity at 1 µM [1]: 93% | remaining activity at 1 µM (PIP4K2a(h)): 103% | remaining activity at 1 µM (PKA(h)): 93% | remaining activity at 1 µM (PKCβI(h)): 89% | remaining activity at 1 µM (PKD2(h)): 115% | remaining activity at 1 µM (PKG1β(h)): 79% | remaining activity at 1 µM (PRKG2(h)): 92% | remaining activity at 1 µM (Pim-2(h)): 56% | remaining activity at 1 µM (ROCK-I(h)): 95% | remaining activity at 1 µM (Rsk1(h)): 91% | remaining activity at 1 µM (Rsk2(h)): 82% | remaining activity at 1 µM (SGK2(h)): 97% | remaining activity at 1 µM (SRPK2(h)): 91% | remaining activity at 1 µM (STK16(h)): 58% | remaining activity at 1 µM (Tec(h) activated): 105% | remaining activity at 1 µM (ULK1(h)): 85% | remaining activity at 1 µM (WNK4(h)): 113%
